# Laboratory results: patent US6914045B2, “Glycopeptide antibiotics” (Wyeth Holdings Corporation, priority 2001, dated 2005)
# Key:
# Assay in all cases: in vitro antibacterial evaluation, MIC by broth dilution
# Assay type in all cases: cell-based
# Staphylococcus sp. = settings: broth dilution, 18 hours at 35° C.; for MIC Staphylococcus aureus (GC 1131): strain GC 1131
# In short: (§1)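 Read-out: the lowest concentration at which the test strain fails to grow. Serial dilutions (64-0.06 μg/mL) in Muller-Hinton II […], 5×10^5 CFU/mL inoculum, NCCLS M7-A2 procedure.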
# Streptococcus sp. = settings: broth dilution, 18 hours at 35° C.; for MIC Streptococcus pneumoniae (ATCC 6301): strain ATCC 6301; for MIC Streptococcus pneumoniae (GC 1894): strain GC 1894; for MIC Streptococcus pyogenes (GC 4563): strain GC 4563; for MIC Streptococcus agalactiae (GC 4564): strain GC 4564; for MIC Streptococcus pneumoniae (GC 4565): strain GC 4565
# In short: as §1
# Escherichia coli = test system: Escherichia coli
# In short: as §1
# Enterococcus sp. = settings: broth dilution, 18 hours at 35° C.; for MIC Enterococcus faecalis (ATCC 29212): strain ATCC 29212; for MIC Enterococcus faecalis (GC 2242): strain GC 2242; for MIC Enterococcus faecium (GC 2243): strain GC 2243; for MIC Enterococcus faecalis (GC 2691): strain GC 2691; for MIC Enterococcus faecalis (GC 3059): strain GC 3059; for MIC Enterococcus faecalis (GC 4552): strain GC 4552; for MIC Enterococcus faecalis (GC 4553): strain GC 4553; for MIC Enterococcus faecalis (GC 4554): strain GC 4554; for MIC Enterococcus faecium (GC 4556): strain GC 4556; for MIC Enterococcus faecium (GC 4557): strain GC 4557; for MIC Enterococcus avium (GC 4558): strain GC 4558; for MIC Enterococcus faecalis (GC 6189): strain GC 6189
# In short: as §1
smiles,measurement,setting,value
CCOc1cc(C2OCC3OC(OC4C(CO)OC(Oc5ccc(CC6NC(=O)C(C(C)c7ccccc7)NC(=O)CNC(=O)C(CO)NC(=O)C(C(O)C7CNC(=N)N7C7OC(CO)C(O)C(O)C7O)NC(=O)C(C(O)C7CNC(=N)N7)NC6=O)cc5)C(O)C4O)C(O)C(O)C3O2)ccc1[N+](=O)[O-] (centres unmarked) [Example 167],MIC Staphylococcus aureus (GC 1131),Staphylococcus sp.; inoculum 5×10^5 CFU/mL,16 µg/mL
same,MIC Staphylococcus aureus (ATCC 29213),Staphylococcus sp.; strain ATCC 29213,16 µg/mL
same,MIC Staphylococcus aureus (GC 1131),Staphylococcus sp.,16 µg/mL
same,MIC Staphylococcus aureus (GC 3051),Staphylococcus sp.; strain GC 3051,16 µg/mL
same,MIC Staphylococcus aureus (GC 3053),Staphylococcus sp.; strain GC 3053,16 µg/mL
same,MIC Staphylococcus aureus (GC 4541),Staphylococcus sp.; strain GC 4541,8 µg/mL
same,MIC Staphylococcus aureus (GC 4542),Staphylococcus sp.; strain GC 4542,16 µg/mL
same,MIC Staphylococcus aureus-SMITH (GC 4543),Staphylococcus sp.; strain GC 4543,16 µg/mL
same,MIC Staphylococcus aureus (GC 4544),Staphylococcus sp.; strain GC 4544,16 µg/mL
same,MIC Staphylococcus aureus (GC 4545),Staphylococcus sp.; strain GC 4545,16 µg/mL
same,MIC Staphylococcus haemolyticus (GC 4546),Staphylococcus sp.; strain GC 4546,16 µg/mL
same,MIC Coagulase Negative Staphylococcus (GC 4547),Staphylococcus sp.; strain GC 4547,8 µg/mL
same,MIC Coagulase Negative Staphylococcus (GC 4548),Staphylococcus sp.; strain GC 4548,8 µg/mL
same,MIC Coagulase Negative Staphylococcus (GC 4549),Staphylococcus sp.; strain GC 4549,8 µg/mL
same,MIC Coagulase Negative Staphylococcus (GC 4551),Staphylococcus sp.; strain GC 4551,16 µg/mL
same,MIC Coagulase Negative Staphylococcus (GC 6257),Staphylococcus sp.; strain GC 6257,8 µg/mL
same,MIC Streptococcus pneumoniae (ATCC 6301),Streptococcus sp.; inoculum 5×10^5 CFU/mL,1 µg/mL
same,MIC Streptococcus pneumoniae (GC 1894),Streptococcus sp.; inoculum 5×10^5 CFU/mL,0.25 µg/mL
same,MIC Streptococcus pyogenes (GC 4563),Streptococcus sp.; inoculum 5×10^5 CFU/mL,1 µg/mL
same,MIC Streptococcus agalactiae (GC 4564),Streptococcus sp.; inoculum 5×10^5 CFU/mL,2 µg/mL
same,MIC Streptococcus pneumoniae (GC 4565),Streptococcus sp.; inoculum 5×10^5 CFU/mL,1 µg/mL
same,MIC Streptococcus pneumoniae (ATCC 6301),Streptococcus sp.,1 µg/mL
same,MIC Streptococcus pneumoniae (GC 1894),Streptococcus sp.,0.25 µg/mL
same,MIC Streptococcus pyogenes (GC 4563),Streptococcus sp.,1 µg/mL
same,MIC Streptococcus agalactiae (GC 4564),Streptococcus sp.,2 µg/mL
same,MIC Streptococcus pneumoniae (GC 4565),Streptococcus sp.,1 µg/mL
same,MIC Escherichia coli (ATCC 25922),"Escherichia coli; strain ATCC 25922, 18 hours at 35° C.",>128 µg/mL
same,MIC Escherichia coli (GC 4559),"Escherichia coli; strain GC 4559, 18 hours at 35° C.",>128 µg/mL
same,MIC Escherichia coli (GC 4560),"Escherichia coli; strain GC 4560, 18 hours at 35° C.",8 µg/mL
same,MIC Enterococcus faecalis (ATCC 29212),Enterococcus sp.; inoculum 5×10^5 CFU/mL,32 µg/mL
same,MIC Enterococcus faecalis (GC 2242),Enterococcus sp.; inoculum 5×10^5 CFU/mL,32 µg/mL
same,MIC Enterococcus faecium (GC 2243),Enterococcus sp.; inoculum 5×10^5 CFU/mL,32 µg/mL
same,MIC Enterococcus faecalis (GC 2691),Enterococcus sp.; inoculum 5×10^5 CFU/mL,32 µg/mL
same,MIC Enterococcus faecalis (GC 3059),Enterococcus sp.; inoculum 5×10^5 CFU/mL,32 µg/mL
same,MIC Enterococcus faecalis (GC 4552),Enterococcus sp.; inoculum 5×10^5 CFU/mL,32 µg/mL
same,MIC Enterococcus faecalis (GC 4553),Enterococcus sp.; inoculum 5×10^5 CFU/mL,32 µg/mL
same,MIC Enterococcus faecalis (GC 4554),Enterococcus sp.; inoculum 5×10^5 CFU/mL,32 µg/mL
same,MIC Enterococcus faecium (GC 4556),Enterococcus sp.; inoculum 5×10^5 CFU/mL,32 µg/mL
same,MIC Enterococcus faecium (GC 4557),Enterococcus sp.; inoculum 5×10^5 CFU/mL,8 µg/mL
same,MIC Enterococcus avium (GC 4558),Enterococcus sp.; inoculum 5×10^5 CFU/mL,32 µg/mL
same,MIC Enterococcus faecalis (GC 6189),Enterococcus sp.; inoculum 5×10^5 CFU/mL,32 µg/mL
same,MIC Enterococcus faecalis (ATCC 29212),Enterococcus sp.,32 µg/mL
same,MIC Enterococcus faecalis (GC 2242),Enterococcus sp.,32 µg/mL
same,MIC Enterococcus faecium (GC 2243),Enterococcus sp.,32 µg/mL
same,MIC Enterococcus faecalis (GC 2691),Enterococcus sp.,32 µg/mL
same,MIC Enterococcus faecalis (GC 3059),Enterococcus sp.,32 µg/mL
same,MIC Enterococcus faecalis (GC 4552),Enterococcus sp.,32 µg/mL
same,MIC Enterococcus faecalis (GC 4553),Enterococcus sp.,32 µg/mL
same,MIC Enterococcus faecalis (GC 4554),Enterococcus sp.,32 µg/mL
same,MIC Enterococcus faecium (GC 4556),Enterococcus sp.,32 µg/mL
same,MIC Enterococcus faecium (GC 4557),Enterococcus sp.,8 µg/mL
same,MIC Enterococcus avium (GC 4558),Enterococcus sp.,32 µg/mL
same,MIC Enterococcus faecalis (GC 6189),Enterococcus sp.,32 µg/mL
